According to patent US20080146633A1, “COMPOSITIONS FOR SKIN LIGHTENING AND TONING DOWN PIGMENT DISORDERS, COMPRISING CREATININE AND/OR CREATININE DERIVATIVES AS ACTIVE SUBSTANCES” (GOLDSCHMIDT GMBH, priority 2002, published 2008):

Tests used:
[1] = test system: fungi tyrosinase; test: Tyrosinase inhibition (L-Dopa to dopachrome, absorption at 475 nm); assay type: biochemical; conditions: 15 min at room temperature
Protocol: The inhibition of fungi tyrosinase was determined as a function of different concentrations of creatinine (0.05 to 1.7% by volume) by reference to the enzymatic reaction of L-Dopa to dopachrome. The absorption maximum of the dopachrome is at a wavelength of 475 nm. The tyrosinase inhibition is calculated in accordance with the following equation:
Inhibition [%]={100−[(Esample*100)/Ereference]} (1)
each measurement was carried out in duplicate, with parallel mixtures. The variation of the method is ±10%,
25 mM acetate buffer (pH 4.9): dilute from 0.2 M acetate buffer (pH 4.9) (Sigma) Phosphate buffer (pH 7): Titrosol (Merck) 20 mM L-DOPA (in acetate buffer) Tyrosinase stock solution: 40 U/ml of phosphate buffer Stock solution of creatinine: 0.45 M in phosphate buffer
The DOPA solution and the tyrosinase stock solution were prepared only prior to the start of the experiment. The L-DOPA solutions should be stored in a dark place and in vessels which can be sealed tightly.
500 μL of DOPA stock solution 400 μL of creatinine solution or phosphate buffer (reference) 100 μL of tyrosinase stock solution Following the addition of the enzyme, the samples were thoroughly mixed using a “Reax Top” (Heidolph). Following an incubation period of 15 min at room temperature, the absorption at 475 nm was determined. The measurement was carried out using a “Helios Beta” spectrophotometer from Unicam.

[2] = test system: MelanoDerm in vitro skin model (melanocytes); test: In vitro skin model test (MelanoDerm), melanin determined quantitatively; assay type: cell-based; conditions: for Melanin: applied every 48 hours
Description: The skin-lightening effect was validated on an in vitro skin model, the MelanoDerm™ from MatTek. This model is very similar in structure and function to the natural skin and has the cell types relevant in the epidermis including the melanocytes, which are responsible for the synthesis of the main pigment melanin. Further information can be found, for example, in M. K. King et al. in Proceedings of Society of Cosmetic Chemists Annual Scientific Meeting and Technology Showcase 1998, 35-36. Creatinine, kojic acid dipalmitate as positive standard and water as negative control were applied every 48 hours over a period of 21 days to the in vitro skin model.
The melanin produced by the melanocytes was determined quantitatively on the 17th and 21st day.

| Structure (SMILES) | Tyrosinase inhibition (%) ([1]; creatinine 0.05 % by volume) | Tyrosinase inhibition (%) ([1]; creatinine 0.30 % by volume) | Tyrosinase inhibition (%) ([1]; creatinine 0.60 % by volume) | Tyrosinase inhibition (%) ([1]; creatinine 0.90 % by volume) | Tyrosinase inhibition (%) ([1]; creatinine 1.10 % by volume) | Tyrosinase inhibition (%) ([1]; creatinine 1.40 % by volume) | Tyrosinase inhibition (%) ([1]; creatinine 1.70 % by volume) | Melanin ([2]; Day 17) [µg] | Melanin ([2]; Day 21) [µg] | Effectiveness compared with kojic acid dipalmitate (positive standard) ([2]; upon prolonged application) |
| --- | --- | --- | --- | --- | --- | --- | --- | --- | --- | --- |
| CN1CC(=O)NC1=N [Creatinine, 2-imino-N-methylhydantoin] | 1.77 | 9.97 | 14.21 | 20.75 | 24.81 | 28.15 | 32.18 | 94.5 | 12.67 | twice as effective |
| CCCCCCCCCCCCCCCC(=O)OCc1cc(=O)c(OC(=O)CCCCCCCCCCCCCCC)co1 [Kojic dipalmitate, kojic acid dipalmitate, reference compound] | – | – | – | – | – | – | – | 102.5 | 82.67 | – |
